BindingDB's records for doi:10.1016/j.bioorg.2016.01.003 (Panjab University, 2016)

Assays:
Assay in all cases: Radioligand Binding Assay
Adenosine receptor A1 = target: T1, Adenosine receptor A1 (Homo sapiens, UniProt P30542)
T1 sequence (P30542 whole entry): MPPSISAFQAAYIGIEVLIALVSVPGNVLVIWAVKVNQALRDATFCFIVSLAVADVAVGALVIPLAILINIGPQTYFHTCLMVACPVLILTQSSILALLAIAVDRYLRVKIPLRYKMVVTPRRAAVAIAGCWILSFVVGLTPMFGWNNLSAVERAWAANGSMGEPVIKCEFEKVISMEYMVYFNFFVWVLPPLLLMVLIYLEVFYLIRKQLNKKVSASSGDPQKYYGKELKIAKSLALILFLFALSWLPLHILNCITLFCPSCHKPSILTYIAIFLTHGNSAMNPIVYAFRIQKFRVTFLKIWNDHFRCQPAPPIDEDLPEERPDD
Experimental: (§1) Dissociation constants at A1, A2A and A3 receptors (Ki-values) were determined in radioligand competition experiments as reported earlier [19,20]. All binding experiments were done in a microplate format utilizing a 96-well microplate filtration system (Millipore Multiscreen MAFC). As radioligands the agonists [3H]CCPA (1 nM) for A1, [3H]NECA (10 nM) for A2A, and [3H]HEMADO (1 nM) for A3 receptors were used. Samples were incubated with 10 µg of membrane protein for 3 h at 25 °C, filtered through the built-in filter at the bottom of the wells and washed three times with […] of ice-cold binding buffer. After addition of 20 µl of scintillator to the dried filter plates samples were counted in a Wallac Micro-Beta counter. Nonspecific binding was determined in the presence of 1 mM theophylline ([3H]CCPA) or […] (N6-phenylisopropyladenosine; [3H]NECA and [3H] HEMADO).

Adenosine receptor A2a = Adenosine receptor A2a (Homo sapiens, UniProt P29274)
Experimental: as §1

Adenosine receptor A2b = target: T2, Adenosine receptor A2b (Homo sapiens, UniProt P29275)
T2 sequence (P29275 whole entry): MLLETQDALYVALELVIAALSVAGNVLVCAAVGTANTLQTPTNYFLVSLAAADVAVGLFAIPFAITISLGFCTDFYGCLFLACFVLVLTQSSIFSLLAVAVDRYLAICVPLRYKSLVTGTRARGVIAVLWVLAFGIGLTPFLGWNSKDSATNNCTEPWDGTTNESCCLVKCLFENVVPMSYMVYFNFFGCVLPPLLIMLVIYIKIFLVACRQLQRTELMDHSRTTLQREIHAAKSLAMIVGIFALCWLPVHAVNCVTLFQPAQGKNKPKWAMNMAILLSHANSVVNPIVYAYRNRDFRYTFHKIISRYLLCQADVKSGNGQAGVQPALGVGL

Adenosine receptor A2a, sequence (P29274 whole entry): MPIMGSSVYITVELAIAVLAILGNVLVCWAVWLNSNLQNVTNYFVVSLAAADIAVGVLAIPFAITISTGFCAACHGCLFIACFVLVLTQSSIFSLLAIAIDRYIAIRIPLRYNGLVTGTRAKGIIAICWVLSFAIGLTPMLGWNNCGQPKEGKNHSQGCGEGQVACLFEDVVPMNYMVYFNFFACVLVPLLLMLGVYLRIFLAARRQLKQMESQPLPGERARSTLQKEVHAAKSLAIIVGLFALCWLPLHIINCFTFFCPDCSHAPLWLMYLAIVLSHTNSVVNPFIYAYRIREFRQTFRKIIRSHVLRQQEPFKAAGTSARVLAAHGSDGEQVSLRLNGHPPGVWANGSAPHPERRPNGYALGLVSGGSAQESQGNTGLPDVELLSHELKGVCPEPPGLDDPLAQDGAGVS

SMILES	Ki (Adenosine receptor A1) [nM]	Ki (Adenosine receptor A2a) [nM]	Ki (Adenosine receptor A2b) [nM]
COC(=O)COc1cccc(-c2nc3c([nH]2)c(=O)n(C)c(=O)n3C)c1 [1,3-Dimethyl-8-[3-(2-methoxy-2-oxoethoxy)-phenyl]xanthine (14, RB-374)]	3950	375	> 10000
COc1cc(-c2nc3c([nH]2)c(=O)n(C)c(=O)n3C)ccc1OCC(=O)N1CCN(C)CC1 [1,3-Dimethyl-8-[3-methoxy-4-{2-(1-methylpiperazin-4-yl)-2-oxoethoxy}-phenyl]-xanthine (15g, RB-446)]	> 30000	4210	> 10000
COc1cc(-c2nc3c([nH]2)c(=O)n(C)c(=O)n3C)ccc1OCC(=O)N1CCOCC1 [1,3-Dimethyl-8-[3-methoxy-4-{2-(morpholin-1-yl)-2-oxoethoxy}-phenyl]xanthine (15f, RB-385)]	> 30000	2740	> 30000
COc1cc(-c2nc3c([nH]2)c(=O)n(C)c(=O)n3C)ccc1OCC(=O)N1CCCCC1 [1,3-Dimethyl-8-[3-methoxy-4-{2-(piperidin-1-yl)-2-oxoethoxy}-phenyl]xanthine (15d, RB-391)]	> 30000	3350	> 10000
COc1cc(-c2nc3c([nH]2)c(=O)n(C)c(=O)n3C)ccc1OCC(=O)N1CCCC1 [1,3-Dimethyl-8-[3-methoxy-4-{2-(pyrrolidin-1-yl)-2-oxoethoxy}-phenyl]xanthine (15c, RB-392)]	> 30000	4570	> 30000
CN1CCN(C(=O)COc2cccc(-c3nc4c([nH]3)c(=O)n(C)c(=O)n4C)c2)CC1 [1,3-Dimethyl-8-[3-{2-(1-methylpiperazin-4-yl)-2-oxoethoxy}-phenyl]xanthine (14g, RB-380)]	1900	561	8210
CN(C)CCNC(=O)COc1cccc(-c2nc3c([nH]2)c(=O)n(C)c(=O)n3C)c1 [1,3-Dimethyl-8-[3-{2-(dimethylaminoethylamino)-2-oxoethoxy}-phenyl]xanthine (14a, RB-379)]	683	163	2830
Cn1c(=O)c2[nH]c(-c3cccc(OCC(=O)N4CCCCCC4)c3)nc2n(C)c1=O [1,3-Dimethyl-8-[3-{2-(hexamethyleneimin-1-yl)-2-oxoethoxy}-phenyl]xanthine (14e, RB-376)]	2430	226	6280
COc1ccc(CCNC(=O)COc2cccc(-c3nc4c([nH]3)c(=O)n(C)c(=O)n4C)c2)cc1OC [1,3-Dimethyl-8-[3-{2-(homoveratrylamino)-2-oxoethoxy}-phenyl]xanthine (14i, RB-377)]	5980	1390	> 10000
Cn1c(=O)c2[nH]c(-c3cccc(OCC(=O)n4ccnc4)c3)nc2n(C)c1=O [1,3-Dimethyl-8-[3-{2-(imidazol-1-yl)-2-oxoethoxy}-phenyl]xanthine (14h, RB-445)]	> 30000	509	> 30000
Cn1c(=O)c2[nH]c(-c3cccc(OCC(=O)N4CCOCC4)c3)nc2n(C)c1=O [1,3-Dimethyl-8-[3-{2-(morpholin-1-yl)-2-oxoethoxy}-phenyl]xanthine (14f, RB-375)]	5370	679	> 10000
Cn1c(=O)c2[nH]c(-c3cccc(OCC(=O)N4CCCCC4)c3)nc2n(C)c1=O [1,3-Dimethyl-8-[3-{2-(piperidin-1-yl)]-2-oxoethoxy}-phenyl]xanthine (14d, RB-382)]	1520	209	4040
Cn1c(=O)c2[nH]c(-c3cccc(OCC(=O)N4CCCC4)c3)nc2n(C)c1=O [1,3-Dimethyl-8-[3-{2-(pyrrolidin-1-yl)-2-oxoethoxy}-phenyl]xanthine (14c, RB-381)]	3290	237	> 10000
COC(=O)COc1ccc(-c2nc3c([nH]2)c(=O)n(C)c(=O)n3C)cc1 [1,3-Dimethyl-8-[4-(2-methoxy-2-oxoethoxy)-phenyl]xanthine (13, RB-419)]	319	170	980
COc1ccc(-c2nc3c([nH]2)c(=O)n(C)c(=O)n3C)cc1OCC(=O)N1CCN(C)CC1 [1,3-Dimethyl-8-[4-methoxy-3-{2-(1-methylpiperazin-4-yl)-2-oxo-ethoxy}-phenyl]xanthine (16g, RB-416)]	3640	685	6540
COc1ccc(-c2nc3c([nH]2)c(=O)n(C)c(=O)n3C)cc1OCC(=O)N1CCCCC1 [1,3-Dimethyl-8-[4-methoxy-3-{2-(piperidin-1-yl)-2-oxoethoxy}-phenyl]xanthine (16d, RB-417)]	1620	76	> 10000
COc1ccc(-c2nc3c([nH]2)c(=O)n(C)c(=O)n3C)cc1OCC(=O)N1CCCC1 [1,3-Dimethyl-8-[4-methoxy-3-{2-(pyrrolidin-1-yl)-2-oxoethoxy}-phenyl]xanthine (16c, RB-414)]	5940	259	> 10000
COc1ccc(-c2nc3c([nH]2)c(=O)n(C)c(=O)n3C)cc1OCC(=O)N1CCOCC1 [1,3-Dimethyl-8-[4-methoxy-3-{(2-(morpholin-1-yl)-2-oxoethoxy}-phenyl]-xanthine (16f, RB-415)]	3510	466	> 10000
CN(C)CCNC(=O)COc1ccc(-c2nc3c([nH]2)c(=O)n(C)c(=O)n3C)cc1 [1,3-Dimethyl-8-[4-{2-(dimethylaminoethylamino)-2-oxoethoxy}-phenyl]xanthine (13a, RB-420)]	220	100	903
Cn1c(=O)c2[nH]c(-c3ccc(OCC(=O)N4CCCCCC4)cc3)nc2n(C)c1=O [1,3-Dimethyl-8-[4-{2-(hexamethyleneimin-1-yl)-2-oxoethoxy}-phenyl]xanthine (13e, RB-424)]	609	273	443
Cn1c(=O)c2[nH]c(-c3ccc(OCC(=O)N4CCCCC4)cc3)nc2n(C)c1=O [1,3-Dimethyl-8-[4-{2-(piperidin-1-yl)-2-oxoethoxy}-phenyl]xanthine (13d, RB-427)]	419	178	401
Cn1c(=O)c2[nH]c(-c3ccc(OCC(=O)N4CCCC4)cc3)nc2n(C)c1=O [1,3-Dimethyl-8-[4-{2-(pyrrolidin-1-yl)-2-oxoethoxy}-phenyl]xanthine (13c, RB-426)]	796	122	1490
COc1ccc(-c2nc3c([nH]2)c(=O)n(C)c(=O)n3C)cc1OCC(=O)NCCN(C)C [1,3-Dimethyl-8-[{3-(2-(dimethylaminoethylamino)-2-oxoethoxy)-4-methoxy}-phenyl]-xanthine (16a, RB-413)]	847	75	4800
COc1ccc(-c2nc3c([nH]2)c(=O)n(C)c(=O)n3C)cc1OCC(=O)N1CCCCCC1 [1,3-Dimethyl-8-[{3-(2-(hexamethyleneimin-1-yl)-2-oxoethoxy)-4-methoxy}-phenyl]xanthine (16e, RB-449)]	1910	94	3940
COc1ccc(CCNC(=O)COc2cc(-c3nc4c([nH]3)c(=O)n(C)c(=O)n4C)ccc2OC)cc1OC [1,3-Dimethyl-8-[{3-(2-(homoveratrylamino)-2-oxoethoxy)-4-methoxy}-phenyl]xanthine (16i, RB-412)]	> 30000	772	> 30000
